Assay results: patent publication US20230382865A1, “HISTONE DEMETHYLASE 5 INHIBITORS AND USES THEREOF” (DANA-FARBER CANCER INSTITUTE, INC., priority 2018, published 2023)
Where “and” joins values, the source holds several entries; their conditions need not be identical. Equal values may be shown once.

Experiments:
[1] = biological target: KDM5B (Homo sapiens, UniProt Q9UGL1); experiment: KDM5B alphascreen activity assay; type: biochemical; settings: Table 1, KDM5B alphascreen activity assay
Procedure: All subsequent steps were carried out in assay buffer (50 mM HEPES, pH 7.5, 0.1% (wt/vol) BSA and 0.01% (vol/vol) Tween-20). […] The final concentration of DMSO was 1%. […] Data were normalized to the (no-enzyme) control, and the IC50 values were determined via nonlinear regression curve fit using GraphPad Prism 7.

[2] = test system: luciferized molp8 cells; experiment: In vivo mouse study, bioluminescence imaging (BLI) of luciferized molp8 cells; parameters: species or system Mice; reference not given here; settings: one individual mouse (cage, EP)
Procedure: Mice were injected intravenously with luciferized molp8 cells. Half million cells per mice. After 1 week, the tumor was observed using bioluminescence imaging (BLI). The normalized total flux was measured over 17 days (FIG. 12; Table 5) Mice were randomized into control and treatment. Treatment lasted for 21 days. Animals with 15% weight loss was terminated.

[3] = test system: MYC target genes in MM.1S cells; experiment: Gene expression profile by RNA-seq with gene set enrichment analysis in MM.1S cells; type: cell-based, human; settings: RNA-seq after treatment in MM.1S cells
From the text: To clarify the molecular mechanism whereby KDM5A mediates MM cell growth, the gene expression profile using RNA-seq after the treatment with pck82 in MM.1S cells was examined.

[4] = test system: H3K4me3 mark; experiment: ChIP-seq analysis of H3K4me3 mark; type: cell-based

Chain of KDM5B (Q9UGL1 whole entry): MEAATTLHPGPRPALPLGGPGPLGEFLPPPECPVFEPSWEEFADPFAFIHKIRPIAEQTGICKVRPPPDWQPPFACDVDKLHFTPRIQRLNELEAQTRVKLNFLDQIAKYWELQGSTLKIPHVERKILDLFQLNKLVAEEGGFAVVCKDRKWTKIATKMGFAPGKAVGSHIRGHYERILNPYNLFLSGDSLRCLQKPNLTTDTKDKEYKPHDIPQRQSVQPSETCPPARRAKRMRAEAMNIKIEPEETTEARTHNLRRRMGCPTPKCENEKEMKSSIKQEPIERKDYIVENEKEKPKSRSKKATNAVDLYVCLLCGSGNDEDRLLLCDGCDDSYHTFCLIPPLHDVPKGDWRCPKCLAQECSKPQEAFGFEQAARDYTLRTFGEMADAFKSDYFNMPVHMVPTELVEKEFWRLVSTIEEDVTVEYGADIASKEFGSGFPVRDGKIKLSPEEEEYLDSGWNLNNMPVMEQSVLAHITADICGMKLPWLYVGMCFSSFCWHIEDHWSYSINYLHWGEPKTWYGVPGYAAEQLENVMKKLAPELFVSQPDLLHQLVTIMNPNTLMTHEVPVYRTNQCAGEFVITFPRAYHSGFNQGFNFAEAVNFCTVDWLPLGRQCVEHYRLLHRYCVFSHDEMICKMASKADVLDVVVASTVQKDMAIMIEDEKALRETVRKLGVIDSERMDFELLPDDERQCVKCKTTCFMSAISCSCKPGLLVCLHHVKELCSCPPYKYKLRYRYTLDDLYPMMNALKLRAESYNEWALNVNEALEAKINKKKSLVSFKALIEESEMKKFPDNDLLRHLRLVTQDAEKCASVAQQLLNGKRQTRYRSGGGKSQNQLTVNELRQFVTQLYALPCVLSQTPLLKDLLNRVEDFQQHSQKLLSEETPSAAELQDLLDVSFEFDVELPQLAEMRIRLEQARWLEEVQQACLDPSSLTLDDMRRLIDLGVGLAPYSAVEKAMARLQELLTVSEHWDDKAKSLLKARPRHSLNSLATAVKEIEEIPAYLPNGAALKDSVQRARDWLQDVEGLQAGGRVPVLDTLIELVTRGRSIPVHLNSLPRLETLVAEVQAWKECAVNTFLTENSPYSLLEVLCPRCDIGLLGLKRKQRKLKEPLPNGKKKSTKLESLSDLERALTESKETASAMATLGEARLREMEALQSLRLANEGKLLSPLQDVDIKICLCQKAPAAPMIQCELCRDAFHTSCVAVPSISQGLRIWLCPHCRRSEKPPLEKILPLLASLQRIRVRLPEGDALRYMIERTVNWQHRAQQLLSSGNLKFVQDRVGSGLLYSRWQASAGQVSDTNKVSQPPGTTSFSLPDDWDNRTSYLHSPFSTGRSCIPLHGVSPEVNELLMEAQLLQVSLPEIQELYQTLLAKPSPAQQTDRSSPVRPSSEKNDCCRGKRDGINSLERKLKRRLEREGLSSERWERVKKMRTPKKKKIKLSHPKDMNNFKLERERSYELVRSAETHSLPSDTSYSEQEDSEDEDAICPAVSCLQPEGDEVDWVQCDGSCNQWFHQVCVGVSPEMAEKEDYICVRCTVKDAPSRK

| Structure (SMILES) | IC50 [1] [µM] | Normalized total flux from BLI imaging ([2]; Day 0) | Normalized total flux from BLI imaging ([2]; Day 3) | Normalized total flux from BLI imaging ([2]; Day 7) | Normalized total flux from BLI imaging ([2]; Day 10) | Normalized total flux from BLI imaging ([2]; Day 14) | Normalized total flux from BLI imaging ([2]; Day 17) | Normalized total flux from BLI imaging ([2]; Day 21) | expression of MYC target genes (gene set enrichment analysis) [3] | H3K4me3 mark, global ([4]; ChIP-seq after treatment) | H3K4me3 mark at the loci of MYC and its targets ([4]; ChIP-seq, targets whose expression is down-regulated after treatment) |
| --- | --- | --- | --- | --- | --- | --- | --- | --- | --- | --- | --- |
| CC(C)c1c(-c2ccccc2)[nH]c2c(C#N)cnn2c1=O [CPI455] | 7.92 | – | – | – | – | – | – | – | – | – | – |
| CCN(CCN(C)C)C(=O)CNCc1cc(C(=O)Oc2ccc(OC(C)C)cc2OC(C)C)ccn1 [PCK82] | – | 1 | 3.764 and 4.5 and 4.255 and 3.625 and 2.035 and 2.296 and 3.238 and 0.2149 and 0.3339 | 0.5646 and 9.722 and 8.546 and 8.656 and 13.51 and 1.677 and 8.169 and 0.2301 and 39.37 | 6.63 and 19.33 and 0.422 and 44.375 and 23.38 and 25.97 and 24.97 and 1.029 and 6.22 | 191.7 and 165.6 and 135.1 and 93.75 and 380.3 and 314.2 and 275.1 and 75.66 and 5.654 | 306.3 and 4.861 and 358.2 and 465.625 and 258.8 and 133.2 and 277.2 and 359 and 565.6 | 45 and 3.404 and 435.5 and 58.66 and 1309 and 1224 and 847.4 and 121.6 and 1078 | decreased expression of MYC target genes | globally increased H3K4me3 mark | did not increase this mark |
